Experiments:
[1] = test system: restraint-induced depression-like behaviors; experiment: Tail suspension test after 5-hour restraint; type: in vivo, C57B6 male mice; settings: for Immobility time (seconds), tail suspension test: 5 hour restraint
Experimental: The experimental animals were C57B6 male mice, n=8 in each group. 5-hour restraint were used to develop depression-like behavioral representations of the mice, then the effects of the compounds on their “depression-like” behaviors were measured according to behavioral performance in tail suspension test and forced swimming test. The specific experimental procedures were as follows: Firstly, the mice were restrained using a mouse fixator for tail vein injection. During the restraint process, all movement abilities of the mice were restricted under the condition of introducing minimal pain to the mice. Compounds were administered intraperitoneally twice, before and after restraint, respectively. After compound administration, the mice returned to the cage to recover for 30 minutes. After 30 minutes recovery, the mice in different groups were subjected to tail suspension test or forced swimming test to measure their “depression-like” behaviors.
Tail suspension test: mouse tails were fixed a cantilever arm on an iron rack using adhesive tape, and the mouse was maintained in a suspension position for 6 minutes. The first 2 minutes were the adaptation period and no data collection was performed. Subsequently, the mouse's immobility behavior was recorded intermittently for the remaining 4 minutes. The duration of immobility was measured to assess the level of behavioral despair in the mice. Data statistics were performed using Student-t-test analysis, *p<0.05, ** p<0.01, *** p<0.001, **** p<0.0001.

dopamine D2 receptors [2] = target: T1, dopamine D2 receptors (Homo sapiens (Human), UniProt P14416); experiment: Affinity for dopamine D2 receptors, radioligand competition with [3H]-Methylspiperone; type: binding; settings: 293T membrane transiently expressing D2
T1 sequence (P14416 whole entry): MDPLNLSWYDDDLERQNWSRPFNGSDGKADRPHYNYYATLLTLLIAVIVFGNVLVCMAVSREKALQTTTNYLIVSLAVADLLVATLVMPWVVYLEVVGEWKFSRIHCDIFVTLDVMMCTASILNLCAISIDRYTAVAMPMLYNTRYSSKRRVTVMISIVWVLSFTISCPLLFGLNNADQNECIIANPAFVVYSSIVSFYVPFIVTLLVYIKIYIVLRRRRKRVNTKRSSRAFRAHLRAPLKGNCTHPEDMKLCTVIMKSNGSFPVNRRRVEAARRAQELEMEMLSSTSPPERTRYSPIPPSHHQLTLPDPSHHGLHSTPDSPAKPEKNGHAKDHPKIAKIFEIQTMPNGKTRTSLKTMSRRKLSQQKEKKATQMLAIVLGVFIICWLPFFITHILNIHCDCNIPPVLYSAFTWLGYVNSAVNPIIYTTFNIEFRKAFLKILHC
Experimental: The affinity of the compounds of the present disclosure for the dopamine D2 receptors was determined by the method of radioligand competition experiment. In the first step, a cell membrane component containing specific dopamine D2 receptors was prepared. A 10 cm culture dish was used for transfection with 10 ng of the dopamine D2 receptors and 40 μL of polyethylenimine (PEI hereafter). After 48 hours, the 10 cm culture dish was taken out from the cell culture incubator and the cultured cells had expressed the dopamine D2 receptors. A vacuum pump was used to suck off the culture medium, 3 mL of lysis buffer was added to each culture dish, and the cells were placed in a 4° C. cold room for 10 minutes. After the cells were detached, the cells were transferred to a 15 mL centrifuge tube and centrifuged at 1500 rpm for 5 minutes at 4° C., and the supernatant was discarded. The cell pellet was transferred to a tissue homogenizer, and 3 mL of lysis buffer was added and fully ground until the cells were broken. Then, cell suspension was equally aliquoted into several EP tubes, centrifuged at 12000 rpm for 5 minutes at 4° C., and the supernatant was discarded. The precipitate was the cell membrane component containing the dopamine D2 receptors. […] First, a standard binding buffer was added to the cell membrane component containing the dopamine D2 receptors, and the cell membrane was disrupted and resuspended with an electric tissue homogenizer. 30 μL of membrane protein suspension was added to each well of a 96-well plate. Then, 30 μL of different drugs were added to the 96-well plate sequentially from bottom to top to ensure that the final drug concentrations were 10^−5 M, 10^−6 M, 10^−7 M, 10^−8 M, 10^−9 M, and 0 M, with two replicates per treatment. Next, 30 μL of [3H]-Methylspiperone was added to each well of the 96-well plate. The plate was incubated for 2 hours at room temperature in the dark. Detection was conducted. The machine readout value reflected the amount of [3H]-Methylspiperone bound on the membrane, and after further data processing, the affinity Ki values of different compounds for the dopamine D2 receptors were obtained.

5-HT2A receptor = 5-HT2A receptor (Homo sapiens (Human), UniProt P28223); experiment: Affinity for 5-HT2A receptors, radioligand competition with [3H]-ketanserin; type: binding; settings: 293T membrane transiently expressing 5-HT2A
Chain of 5-HT2A receptor (P28223 whole entry, the tested form may be a part): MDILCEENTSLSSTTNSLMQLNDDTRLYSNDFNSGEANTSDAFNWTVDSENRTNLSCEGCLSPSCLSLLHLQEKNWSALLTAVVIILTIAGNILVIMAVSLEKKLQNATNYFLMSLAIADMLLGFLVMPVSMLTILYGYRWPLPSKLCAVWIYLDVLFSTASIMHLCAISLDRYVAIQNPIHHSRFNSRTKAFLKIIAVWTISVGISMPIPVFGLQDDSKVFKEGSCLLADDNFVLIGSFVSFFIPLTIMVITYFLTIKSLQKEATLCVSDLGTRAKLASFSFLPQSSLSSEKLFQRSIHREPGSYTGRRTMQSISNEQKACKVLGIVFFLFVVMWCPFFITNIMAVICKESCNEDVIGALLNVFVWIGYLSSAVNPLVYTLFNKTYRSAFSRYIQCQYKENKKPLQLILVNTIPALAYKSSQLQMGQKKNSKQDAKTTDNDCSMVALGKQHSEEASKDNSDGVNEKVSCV
Experimental: The affinity of the compounds of the present disclosure for the 5-HT2A receptors was determined by the method of radioligand competition experiment. In the first step, a cell membrane component containing specific 5-HT2A receptor was prepared. A 10 cm dish was used for transfection with 10 ng of the 5-HT2A receptor and 40 μL of PEI. After 48 hours, the 10 cm dish was taken out from the cell incubator and the cultured cells had expressed the 5-HT2A receptor. A vacuum pump was used to suck off the culture medium, 3 mL of lysis buffer was added to each culture dish, and the cells were placed in a 4° C. cold room for 10 minutes. After the cells were detached, the cells were transferred to a 15 mL centrifuge tube and centrifuged at 1500 rpm for 5 minutes at 4° C., and the supernatant was discarded. The cell pellet was transferred to a tissue homogenizer, and 3 mL of lysis buffer was added and fully ground until the cells were broken. Then, cell suspension was equally aliquoted into several EP tubes, centrifuged at 12000 rpm for 5 minutes at 4° C., and the supernatant was discarded. The precipitate was the cell membrane component containing the 5-HT2A receptor. […] First, a standard binding buffer was added to the cell membrane component containing the 5-HT2A receptor, and the cell membrane was disrupted and resuspended with an electric tissue homogenizer. 30 μL of membrane protein suspension was added to each well of a 96-well plate. Then, 30 μL of different drugs were added to the 96-well plate sequentially from bottom to top to ensure that the final drug concentrations were 10^−5 M, 10^−6 M, 10^−7 M, 10^−8 M, 10^−9 M, and 0 M, with two replicates per treatment. Next, 30 μL of [3H]-ketanserin was added to each well of the 96-well plate. The plate was incubated for 2 hours at room temperature in the dark. Detection was conducted. The machine readout value reflected the amount of [3H]-ketanserin bound on the membrane, and after further data processing, the affinity Ki values of different compounds for the 5-HT2A receptor were obtained.

dopamine D2 receptors [3] = target: T1, dopamine D2 receptors; experiment: Dopamine D2 receptor β-arrestin2 BRET (recruitment); type: cell-based; settings: D2 receptor, β-arrestin2 pathway;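 further: cells co-expressing Rluc-fused D2 receptor, GRK2 and GFP2-fused β-arrestin2, BRET read with coelenterazine 400a after adding drug over a concentration series, in duplicate wells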
Experimental: To examine the downstream G protein signaling pathway mediated by dopamine D2 receptors, on the first day, a 6 cm culture dish was used for transfection with 1 μg of dopamine D2 receptors, 1 μg of Gαi1 containing a C-terminal seaweed luciferase (Gαi1-Rluc), 1 μg of Gβ3, 1 μg of Gγ9 containing C-terminal green fluorescent protein (Gγ9-GFP), and 16 μL of PEI. At the same time, in order to examine the downstream β-arrestin2 signaling pathway mediated by dopamine D2 receptors, on the first day, a 6 cm culture dish was used for transfection with 500 μg of dopamine D2 receptors containing C-terminal seaweed luciferase (D2-Rluc), 500 μg of G protein-coupled receptor kinase 2 (GRK2), 2500 μg of β-arrestin2 containing N-terminal green fluorescent protein (GFP2-ARRB2) mixed with 14 μL of PEI. The next day, the confluent cells of a 6 cm culture dish were digested and reseeded into a 96-well plate with 100 μL of culture medium added to each well. On the third day, the drugs were added for test. The 96-well plate was taken out from the cell incubator to decant the culture medium, 40 μL of the substrate coelenterazine 400a (final concentration of 5 μM) was added to each well, and then 20 μL of different drugs were added sequentially from left to right to ensure that the final concentration of the drug decreased gradually from bottom to top, with two replicates per treatment. Finally, the prepared samples were loaded on machine for test. The machine readout value reflected the recruitment of β-arrestin2 to the membrane or the dissociation of G protein trimer. The former indicated the degree of activation of the β-arrestin2 signaling pathway downstream of the dopamine D2 receptors, and the latter indicated the degree of activation of the G protein signaling pathway downstream of the dopamine D2 receptors.

CN(C)C(=O)N[C@H]1CC[C@H](CCN2CCN3c4cccc5scc(c45)CC3C2)CC1 (single isomer, unassigned; (-)) [(−)-I-27]
Inhibition of restraint-induced depression-like behaviors ([1]; 0.1 mg/kg and 0.025 mg/kg i.p., tail suspension and forced swimming tests): significantly inhibit | Immobility time (seconds), tail suspension test ([1]; (−)-I-27 0.025 mg/kg i.p.): 87.04 ± 7.69 s | Immobility time (seconds), tail suspension test ([1]; (−)-I-27 0.1 mg/kg i.p.): 54.13 ± 6.99 s | Ki (dopamine D2 receptors [2]): 120 nM | Ki (5-HT2A receptor): 2290 nM | β-arrestin2 BRET (Emax %) (dopamine D2 receptors [3]): (54.79%) | EC50 (dopamine D2 receptors [3]; read-out: β-arrestin2 BRET EC50): 10.6 nM

— patent US20240383913A1, “THIOPHENE RING COMPOUND, PREPARATION METHOD THEREFOR AND APPLICATION THEREOF” (CENTER FOR EXCELLENCE IN MOLECULAR CELL SCIENCE, CHINESE …, priority 2021, published 2024)
